Assay results reported in patent publication US20240360091A1, “GLUN2B-SUBUNIT SELECTIVE ANTAGONISTS OF THE N-METHYL-D-ASPARTATE RECEPTORS WITH ENHANCED POTENCY AT ACIDIC PH” (Emory University, priority 2021, published 2024).

Tests used:
Alpha2C = Alpha2C (Homo sapiens (Human), UniProt P18825); assay: Off-target radioligand binding displacement (NIMH PDSP); conditions: pH 7.4
Method: Briefly, the compound was submitted to the NIMH PDSP and screened at a single concentration (10 μM) of test article under equilibrium conditions for ability to displace specific radioligands from binding to their targets expressed in mammalian cell membranes in vitro. Each receptor target was assayed in quadruplicate and the % inhibition of radioligand binding at each target determined at pH 7.4. […]

[1] = system: motor coordination of mice on rotarod; assay: Rotarod performance; assay type: in vivo, mouse; conditions: for rotarod impairment: all four trials
Method: The locomotor and rotarod studies were approved by the Georgia State University IACUC, an AAALAC accredited institution under the supervision of licensed veterinarians. Mice were group housed, provided nestlets and shelters with access to food pellets and water ad libitum under a 12-hour light/dark cycle.
For rotarod experiments, male C57BL/6 mice (>90 days old) were tested using a Rotamax 4/8 rotarod (Columbus Instruments, Columbus, Ohio). Prior to training and testing, the mice were brought to the testing room and allowed to acclimate for two hours prior to any further handling. Mice were placed on a rotating rod (5 rpm), 3.8 cm in diameter and 8 cm wide, elevated 30 cm from the floor of a chamber. After 10 sec of rotation at a fixed velocity, the rotation was slowly accelerated from 5 to 35 rpm over a 5 min period. The duration of time that the mouse could stay on the rotarod, without hanging on for a full rotation or without falling, was recorded. Mice were trained 4 times at 25 min inter-trial intervals on each day for two days. On day three, mice were randomly assigned to treatment groups and administered test drug or vehicle (via IP administration) 25 min prior to testing (4 trials with inter-trial interval of 25 min). Individuals performing the experiment were blinded to the identity of each treatment group. Results were analyzed by ANOVA and Dunnett's post hoc test to compare duration of time on the rotating rod of drug-treated groups to the vehicle controls.

[2] = Liver microsome stability, human; assay type: in vitro ADME; conditions: 1 μM, with cofactors, one-hour incubation at 37° C.
Method: (§1) Metabolic stability was assessed using human and mouse liver microsomes (Xenotech, USA). The final composition of the assay included 1 μM of the test compound or reference standards (imipramine and diclofenac sodium) prepared from DMSO or acetonitrile stock, so that the final concentration of DMSO and acetonitrile was 0.2% and 0.8%, respectively. The test compound was incubated with 0.5 mg/mL microsomal protein without (100 mM potassium phosphate buffer alone, pH 7.4) or with cofactors (5.0 mM glucose-6-phosphate, 0.06 U glucose-6-phosphate dehydrogenase, 2.0 mM MgCl2, 1.0 mM NADP^+/NADPH). The test compound and standards were incubated at 37° C. with human and mouse liver microsomes; aliquots of the reaction mixture (100 μL) were removed at 0, 5, 15, 30, 60 and 120 min. The reaction in the aliquots was stopped by the addition of 2.5 mL tert-butyl methyl ether and the samples were subjected to shaking for 15 min. […] The percent of the test compound remaining after the specified incubation period was calculated with respect to the peak areas of the test compound at time 0 min.
(§2) The compound and standards were incubated with human and mouse liver microsomes with or without cofactors, and the samples were extracted and analyzed using LC-MS/MS, as described above.

[3] = Liver microsome stability, mouse; assay type: in vitro ADME; conditions: 1 μM, with cofactors, one-hour incubation at 37° C.
Method: as §1, §2

[4] = system: MCAO model of transient ischemia in mice; assay: In vivo model of transient focal ischemia, middle cerebral artery occlusion (MCAO); set-up: species or system mouse; conditions: for infarct volume: 24 hours post reperfusion
Method: All protocols involving animals were approved by the Georgia State University IACUC, an AAALAC accredited program, and was under the supervision of a licensed veterinarian. Mice were group housed, provided nestlets and shelters with access to food pellets and water ad libitum under a 12-hour light/dark cycle. Mice were brought to a separate room and housed for at least 30 min prior to initiation of the surgery.
Mice (C57B16, >90 days old, Jackson Labs) were subjected to transient (60 min) middle cerebral artery occlusion (MCAO) and the infarct volume measured 24 hours post reperfusion, similar as previously described (Yuan, et al., Neuron, 2015, 85(6):1305-1318). Male mice were used for this experiment to reduce potential confound by progesterone variation through estrous cycles, which can have neuroprotective actions. Briefly, transient ischemia was induced in anesthetized (2% isoflurane/98% O2) mice by insertion of an intraluminal suture into the MCA for 60 minutes (Junge, et al., Proc NatlAcad Sci USA, 2003, 100: 13019-13024). The body temperature of each mouse was monitored with a rectal thermometer and maintained at 37° C. through use of a homeothermic blanket. Changes in local cerebral blood flow were monitored with a laser Doppler flowmeter probe (Perimed) secured via glue to the skull 4-6 mm lateral and 2 mm posterior of bregma. An 11-mm 5-0 Dermalon or Look (SP185) black nylon non-absorbable suture with the tip flame-rounded was introduced into the left internal carotid artery through the external carotid artery stump up to 10.5-11 mm of suture insertion. Only mice with a reduction in blood flow to <20% for 60 min and with recovery of blood flow to >90% following removal of the suture were progressed to complete the study. Following the occlusion period, mice were placed back in their cages on a warming blanket (37° C.) for several hours and monitored for righting reflex and ability to ambulate upon a gentle touch. At 24 hours post occlusion, mice were euthanized by isoflurane overdose, the brain quickly removed and cut into 2 mm sections and incubated in 2% 2,3,5-triphenyltetrazolium chloride (TTC) in phosphate buffered saline (pH 7.4) at 37° C. for 20 min, then placed at 4° C. for imaging. The infarct area was then measured using the NIH IMAGE software (Scion Corporation, Beta 4.0.2 release). The lesioned area of each section was determined by digital threshold reductions in TTC staining to ≤20% lower intensity than that observed in the contralateral cortex. The infarct region was then manually outlined with a curser and the cubic volume of the infarct determined for each slice, then summed across all four slices from each animal to obtain total infarct volume. […]

Alpha2C, sequence (P18825 whole entry): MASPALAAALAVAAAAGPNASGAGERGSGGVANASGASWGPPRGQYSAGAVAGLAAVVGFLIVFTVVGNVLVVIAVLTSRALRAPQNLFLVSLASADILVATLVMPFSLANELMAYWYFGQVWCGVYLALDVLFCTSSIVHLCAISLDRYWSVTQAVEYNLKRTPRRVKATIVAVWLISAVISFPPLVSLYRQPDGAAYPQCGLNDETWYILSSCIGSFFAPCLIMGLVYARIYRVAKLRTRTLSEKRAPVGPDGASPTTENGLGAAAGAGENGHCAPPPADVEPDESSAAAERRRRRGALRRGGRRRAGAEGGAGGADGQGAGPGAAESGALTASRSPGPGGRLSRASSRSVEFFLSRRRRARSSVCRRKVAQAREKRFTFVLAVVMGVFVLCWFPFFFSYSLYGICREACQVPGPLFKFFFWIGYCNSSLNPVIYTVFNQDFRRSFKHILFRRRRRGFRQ

## O=C1CCc2cc(OC[C@H](O)CN3CCN(c4ccc(C(F)(F)F)cc4)CC3)ccc2N1 [NP10679]
Alpha2C
  Ki: 3.09 µM
[1]; 2 mg/kg IP
  rotarod impairment: no significant impairment
[1]; 5 mg/kg IP
  rotarod impairment: no significant impairment
[1]; 10 mg/kg IP, fourth trial
  latency to fall: 87 ± 13 s
[1]; 10 mg/kg IP, trials 1, 2, or 3
  latency to fall, change from the vehicle control: no statistically significant change
[2]
  percent remaining in human liver microsomes: 72%
[3]
  percent remaining in mouse liver microsomes: 54%
[4]; 5 mg/kg IP
  infarct volume: 56±6.6 mm^3
[4]; 10 mg/kg IP
  infarct volume: 49±3.0 mm^3
[4]; IP dose prior to 60 min MCAO
  maximum infarct volume reduction: 52%
[4]; Mus musculus, 1 h, IP dose prior to 60 min MCAO, read-out: ED50 for infarct volume reduction
  ED50: 1 mg/kg
